Patent US7923231B2, “Production of glucuronic acid using myo-inositol oxygenase from cryptococcus neoformans” (Cargill, Incorporated, priority 2004, dated 2011)
Like-named read-outs stand apart in the source and are kept apart here.

Legend:
[1] = cited from earlier work
[2] = system: myo-inositol oxygenase (MIO); test: Small-scale biocatalytic conversion: buffer concentration and ionic strength; format: biochemical, Cryptococcus neoformans; conditions: for increase in initial reaction rate and final concentration of D-glucuronic acid produced: salts concentrations higher than 0.25 M
Procedure: A small-scale protocol was used to develop the biocatalytic production of glucuronic acid from myo-inositol. Cells containing myo-inositol oxygenase were grown as described before, harvested by centrifugation and washed in 50 mM MOPS buffer at pH 7.0. The cell paste was kept frozen until use. To prepare the enzyme for the reaction, the cells were resuspended in 2 volumes of the same buffer at pH 6.5 and broken using either a French press or a MICROFLUIDICS® homogenizer (MICROFLUIDIZER® cell disruptor M-110L, available from Microfluidics, MA). Breakage was accomplished by 2 to 3 passes at 20,000 psi, and was followed visually using a microscope. The cell extract was centrifuged for 20 minutes at 15,000 rpm to remove the cell debris. Total soluble protein was measured in the clear supernatant, as described in Example 1. The cell extract was diluted to a protein concentration of 75 mg/ml and the enzyme was incubated for 1 hr on ice in the presence of ascorbic acid and ferrous ammonium sulfate at concentrations of 5 and 2 mM, respectively.
The enzyme reaction was carried out in 0.7 L reactors with temperature, pH, agitation and dissolved oxygen control. A solution of 50 g/L myo-inositol in 50 mM MOPS at pH 6.5 (200 mL) was used in the standard protocol. Temperature was controlled at 15° C. Pure air, air enriched with oxygen or pure oxygen were used to supply enough oxygen for the reaction to proceed. The air was supplied either in the headspace of the reactor or was sparged into the liquid. The formation of glucuronic acid results in a decrease in the pH of the broth. To keep the pH at the desired value, pH 6.5, the acid was neutralized with 4 N NaOH. The enzyme solution was added to reach an initial concentration of 2 g soluble protein/L. The reaction proceeded very fast immediately after the enzyme addition and the rate decayed over time. Different experiments varied the number and/or amount of enzyme additions. The progress of the reaction was followed by HPLC analysis.
Effect of buffer concentration and ionic strength. The effect of the buffer concentration was tested with the described protocol of Example 6, and included testing without any buffer, using 5 mM MOPS, and using 50 mM MOPS. No difference in the performance of the reaction was observed, either in reaction rate or in extent of reaction, as long as good pH control was provided.
Additionally, further studies on increasing the ionic strength of the broth by adding salts, using either NaCl or sodium glucuronate at 0.25 M and 0.5 M, or mixes of both, indicated better enzyme performance at higher ionic strength.

[3] = system: myo-inositol oxygenase (MIO); test: Conversion rate additives in the myo-inositol conversion mixture; format: biochemical, Cryptococcus neoformans; conditions: additive in conversion mixture
Excerpt: Although the conversion rate increased, the final conversion percentages were similar to conversion mixtures without those same additives.

[4] = Freeze-thaw and frozen storage stability of MIO activity; conditions: continuous storage at −80° C. for several months
Excerpt: A lysed cell mixture may be added either purified or unpurified into a mixture for MIO activation. If desired, samples containing MIO may be stored prior to use. Samples containing MIO may be stored at low temperatures for short periods of time or may be frozen for longer periods of storage without significant MIO degradation. […] Additional freeze-thaw cycles, however, did reduce MIO activity.

Molecule: N[C@@H](CS)C(=O)O [Cysteine]
- reduction potential ([1]; pH 7): −230 mV

Molecule: O=C1O[C@H]([C@@H](O)CO)C(O)=C1O [L-ascorbic acid]
- reduction potential ([1]; 25° C.): +54 mV
- reduction potential ([1]; 30° C.): +51.2 mV

Molecule: O=S(=O)(O)CCCN1CCOCC1 [MOPS, 3-[N-morpholino]propanesulfonic acid]
- effect of buffer concentration on reaction rate and extent of reaction ([2]; no buffer, 5 mM and 50 mM MOPS, with good pH control): No difference

Molecule: [Cl-].[Na+] [NaCl]
- increase in initial reaction rate and final concentration of D-glucuronic acid produced [2]: ~50%

Molecule: O=C[C@H](O)[C@@H](O)[C@H](O)[C@H](O)C(=O)[O-].[Na+] [sodium glucuronate, reference compound]
- inhibition of the reaction ([2]; high concentrations): Some inhibition
- increase in initial reaction rate and final concentration of D-glucuronic acid produced [2]: ~50%

Molecule: Bovine serum albumin: protein tested as conversion rate additive
- effect on MIO specific activity and conversion rate [3]: minimal effect

Molecule: Superoxide dismutase
- effect on MIO specific activity and conversion rate [3]: slightly increase

Molecule: catalase
- improvement in conversion ([3]; after 6.5 hours): 18%

B1: MIO: Fe(II) containing enzyme that converts myo-inositol to D-glucuronic acid using oxygen (protein, UniProt Q9UGB7 1-285, looked up)
Inositol oxygenase: MKVTVGPDPSLVYRPDVDPEVAKDKASFRNYTSGPLLDRVFTTYKLMHTHQTVDFVRSKHAQFGGFSYKKMTVMEAVDLLDGLVDESDPDVDFPNSFHAFQTAEGIRKAHPDKDWFHLVGLLHDLGKVLALFGEPQWAVVGDTFPVGCRPQASVVFCDSTFQDNPDLQDPRYSTELGMYQPHCGLDRVLMSWGHDEYMYQVMKFNKFSLPPEAFYMIRFHSFYPWHTGRDYQQLCSQQDLAMLPWVREFNKFDLYTKCPDLPDVDKLRPYYQGLIDKYCPGILSW
- MIO activity on long-term storage [4]: remained stable
